One test relates to human lymphoblastoid L40. The experiment in a line: mitochondrial mass in human lymphoblastoid L40, MitoTracker Green FM and FACS. It counts as cell-based. As to conditions: for mitochondrial mass: 2-day treatment, 10 μM LY294002, 2 μM DATS, 1 μM BITC, 1 μM PITC, 2 μg/mL resveratrol, 0.03 μM lycopene, 6.7 μM PEITC, 5 mM silibinin, 1.25 mM selenite, 2.5 mM genistein, 250 μg/mL GSE, 50 μg/mL EGCG, 3 mg/mL bilberry extract, 1 μM AITC, 50 pM rapamycin, 250 μM AICAR. The text has this: Mitochondrial mass was monitored by staining the 60% Ethanol-fixed cells with MitoTracker Green FM prior to FACS analysis.

The subject of test [1] is senescent WI-38 cells (human primary fibroblast). The experiment in a line: loss of senescent WI-38 cells, β-galactosidase (X-gal) staining. The conditions noted are these: 56 days in senescence; 50 pM rapamycin, 250 μM AICAR, 20 μg/mL EGCG, 1.6 μg/mL GSE, 20 μg/mL bilberry extract, 1 μM AITC, 12.5 μM 2-deoxyglucose; 3-day-on/7-day-off (AICAR 2-day-on/8-day-off). It counts as cell-based. On the procedure:
AICAR and reduced glucose treatment were incubated with cells in a 2-day-on/8-day-off cycle, while the rest of agents were in a 3-day-on/7-day-off cycle. The treatment started at passage 29. The medium was refreshed every 3 days. After 56-days from passage 31 (senescence), the cells were briefly fixed in 2% formaldehyde/0.2% glutaraldehyde and stained with 1 mg/mL 5-bromo-4-chloro-3-indolyl β-D-galactoside (X-gal) (in buffer containing 40 mM citric acid/sodium phosphate, pH 6.0, 5 mM potassium ferrocyanide, 5 mM potassium ferricyanide, 150 mM NaCl, and 2 mM MgCl2) at 37° C. for 18 hrs for the senescence marker, cellular β-galactosidase activity (blue in color picture and dark grey in black/white picture). Surviving senescent cells were viewed under a microscope.
This invention discloses that CR or rapamycin also prolongs senescence and prevents cell death induced by telomere dysfunction in human cells. Primary human embryonic lung fibroblasts WI-38 were used. […] Cells at passage 29 were treated with 50 pM rapamycin. The treatment was on a 10-day cycle of 3-day with and 7-day without rapamycin (also termed as 3-day-on/7-day-off cycle). […] Due to increased cytosol β-galactosidase activity, senescent cells are stained a blue color (shown as dark grey in black/white picture). […] Rapamycin didn't transform cells since the senescence marker was still present and cell growth was not observed.

For test [2], the system named is cdc13-1 cells. The experiment in a line: cdc13-1 cell survival after cdc13-1p inactivation, colony formation assay. As to conditions: for cell death triggered by inactivation of cdc13-1p (colony formation assay): 37° C. about 30 hrs, 6.7 μM PEITC, 5 mM silibinin, 1.25 mM selenite, 2.5 mM genistein, 250 μg/mL GSE, 50 μg/mL EGCG, 3 mg/mL bilberry extract. In kind it is cell-based, budding yeast. On the procedure:
To induce telomere dysfunction, fresh overnight cultures of cdc13-1 were diluted into YEPD medium with the indicated concentrations of glucose or 2-deoxyglucose and incubated at 37° C. for 24 hrs. For colony formation assay, treated cells were then serially diluted 10-fold in H2O and 5 μL was spotted onto regular YEPD plates. The plates were incubated at 24° C. for survived cells to form colonies. The starting number of live-cells was also counted by this colony formation assay. (B) Nitrogen restriction inhibits cell death induced by cdc13-1p inactivation as monitored by a colony formation assay. Cells were incubated in synthetic medium (SC) or SC—N (SC without amino acids and (NH4)2SO4 as nitrogen sources) at 37° C. for 24 hrs. The number of survived cells was counted using colony formation assay as described in 1A. (C-D) Inhibition of TOR by low doses of rapamycin (labeled as Rapa) (below growth inhibition concentration) can prevent cell death induced by cdc13-1p inactivation. Cells were incubated with the indicated concentrations of rapamycin in YEPD medium at 37° C. for 24 hrs. The number of survived cells was measured by the colony formation assay as in 1A. For growth curve, fresh overnight culture was diluted into YEPD medium and incubated at 24° C. in the presence of the indicated concentrations of rapamycin. Cell Density (OD595) was measured at the indicated time points and plotted against the time. (E) Deterioration of growth arrested cdc13-1 cells can be delayed by low dose of rapamycin (1 nM) and glucose restriction (0.5%) as measured by counting surviving cells using the colony formation assay. The data represent an average of three experiments.
(§1) (A) Cells were incubated at 37° C. to inactivated cdc13-1p, in YEPD medium, YEPD+1 nM rapamycin or YEPD with 0.5% glucose. At the indicated time points, an aliquot of cells was taken out and fixed with 50% ethanol at −20° C. for about 4 hrs, and then digested with 0.2 mg/mL RNase A in 50 mM Tris pH 7.6 at 37° C. overnight. The cells were next washed with 50 mM Tris pH 7.6 and treated with 40 μg/mL proteinase K at 55° C. for 2 hrs. After being washed again, cells were stained with 100 μg/mL propidium iodide for 20 min in the dark prior to FACS (Fluorescence activated cell sorter) analysis. […] Cells were incubated at 37° C. for 2 hours first, then diluted with a 37° C.-YEPD medium, YEPD with rapamycin to make a final concentration of 1 nM, or with a 37° C.-medium without glucose to make final 0.5% glucose. The cells were continuously incubated at 37° C. for 22 hrs. Surviving cells were counted using the colony formation assay.
The 6.7 μM PEITC, 5 mM silibinin, 1.25 mM selenite, 2.5 mM genistein, 250 μg/mL grape seed extract (GSE), 50 μg/mL EGCG, and 3 mg/mL bilberry extract (BE) were incubated with cells at 37° C. for about 30 hrs. The cell survival was measured by the colony formation assay at a permissive temperature 24° C.
In addition, limitation of nitrogen by SC—N medium (containing 0.67% yeast nitrogen base in absence of amino acids and (NH4)2SO4, 2% glucose, plus a mixture of 100 mg/L each of histidine, leucine, tryptophan and uracil for this yeast strain) prevented the cell death (FIG. 1B). […] After 60 hrs of incubation at 37° C., cell survival was at least 100-fold more than those without treatment.

Another test relates to NIH3T3 cells. Put plainly: mitochondrial mass in NIH3T3 cells treated with TPA. It counts as cell-based, mouse. The conditions noted are these: 10 μM TPA, two days. On the procedure:
NIH3T3 cells were incubated in DMEM medium (DMEM with 10% FCS, 100 units/mL penicillin, 100 μg/mL streptomycin and 2 mM glutamine) in the presence of control DMSO, 10 μM TPA, 1 nM rapamycin, 10 μM TPA+1 nM rapamycin, 40 μM AICAR, or 10 μM TPA+40 μM AICAR at 37° C. in a humidified atmosphere consisting of 95% air and 5% CO2 for two days. Cells were then harvested by trypsin and fixed by 60% ethanol. The cells were stained with MitoTracker Greeen FM in darkness for 30 min prior to FACS analysis. The data represents the average of a triplica-experiment.

Another test relates to marine models. As to conditions: marine models (Calvert 2008); cited from earlier work.
Test [3] relates to cdc13-1 cells. The experiment in a line: DNA content / cell cycle FACS analysis after cdc13-1p inactivation. In kind it is cell-based, budding yeast. The conditions noted are these: rapamycin 1 nM in YEPD, 37° C. for 2 hrs. Here is the method:
as §1

The test system of another test is WI-38 cells. Put plainly: growth and population doubling of WI-38 cells. The conditions noted are these: 25 pM rapamycin; without rapamycin 5.18 or 5.12. It counts as cell-based, human. Here is the method:
(A) WI-38 cells were treated with the indicated concentrations of rapamycin as in FIG. 7. The treatment started at passage 29. Cells entered senescence at passage 31. After 65-days in senescence, surviving cells were measured by MTT (3-(4,5-dimethylthiazol-2-yl)-2,5-diphenyltetrazolium bromide, a tetrazole) staining. The purple color of MTT generated by mitochondrial reductase was read in 570 nm by a microplate reader. The data is a representative of three independent duplica-experiments. (B) The effect of rapamycin on growth of WI-38 cells. Cells were cultured as in FIG. 7. Arrows indicate the time point when rapamycin was added. 25 pM rapamycin has little effect on growth rate, but increases the population doubling (PD) from 5.18 to 6.82. Population doublings were calculated using the following formula: PD=log(Nf/N0)/log 2, where Nf is the final cell number and N0 is the number of initially seeded cells. Data is a representative of two independent duplica-experiments. (C) The low doses of rapamycin increase protein levels of p53, p21 and pRB. WI-38 cells on the 20th day after the last split (senescence) were treated with rapamycin for 18 hrs. Cell lysates were then analyzed by Western blotting using antibodies specifically against p53, p21 or pRB.

Values joined by “and” are separate entries in the source; they are usually repeats but may differ in a detail not shown here. Equal entries are not always repeated.

Results on 14 compounds are retold here after patent publication US9360471B2, “Anti-aging agents and methods to identify them” (priority 2009, dated 2016).

As for `O=CC[C@@H](O)[C@H](O)[C@H](O)CO` [2-deoxyglucose, reference compound], the mitochondria mass entry with human lymphoblastoid L40 (12.5 μM 2-deoxyglucose) is “increased mitochondria mass”. In addition, the “loss of the senescent WI-38 cells” value in test [1] is listed as “prevented”. The “cell death induced by inactivation of cdc13-1p (colony formation assay)” value in the test with cdc13-1 cells [2] (200 μM added to YEPD with 2% glucose, 37° C. 22 hrs) is recorded as “prevented cell death effectively”.

As to `C=CCN=C=S` [AITC, allyl isothiocyanate], the mitochondrial mass result with human lymphoblastoid L40 is “increased”. Further, the “loss of the senescent WI-38 cells” value in test [1] is recorded as “prevented”.

Take `O=C(O[C@@H]1Cc2c(O)cc(O)cc2O[C@@H]1c1cc(O)c(O)c(O)c1)c1cc(O)c(O)c(O)c1` [EGCG, Epigallocatechin gallate]: the mitochondrial mass result in the test with human lymphoblastoid L40 is reported as “increased”. In addition, the “loss of the senescent WI-38 cells” value in test [1] is listed as “prevented”. Also, the “cell death triggered by inactivation of cdc13-1p (colony formation assay)” value (from here on “cell death triggered by inactivation”) in the test with cdc13-1 cells [2] is recorded as “inhibited cell death”.

For `S=C=NCCc1ccccc1` [PEITC, phenethyl isothiocyanate], the mitochondrial mass entry in the test with human lymphoblastoid L40 is recorded as “increased”. Besides, the “cell death triggered by inactivation” value in the test with cdc13-1 cells [2] is reported as “inhibited cell death”.

Consider `CCCCCCCCCCCCCC(=O)O[C@@H]1[C@@H](C)[C@@]2(O)[C@@H](C=C(CO)C[C@]3(O)C(=O)C(C)=C[C@@H]23)[C@@H]2C(C)(C)[C@]12OC(C)=O` [TPA, 12-O-tetradecanoylphorbol 13-acetate], for which, in the test on NIH3T3 cells, the “mitochondrial mass in NIH 3T3 cells” value was “dramatically decreased the mitochondrial mass”.

For `S=C=NCc1ccccc1` [benzyl isothiocyanate], the mitochondrial mass result in the test with human lymphoblastoid L40 is “increased”.

Regarding `C=CCSSSCC=C` [diallyl trisulfide], the mitochondrial mass entry with human lymphoblastoid L40 was “increased”.

As for `O=c1c(-c2ccc(O)cc2)coc2cc(O)cc(O)c12` [genistein], the mitochondrial mass result with human lymphoblastoid L40 was “increased”. In addition, the “cell death triggered by inactivation” value with cdc13-1 cells [2] was “inhibited cell death”.

Turning to `CC(C)=CCC/C(C)=C/C=C/C(C)=C/C=C/C(C)=C/C=C/C=C(C)/C=C/C=C(C)/C=C/C=C(\C)CCC=C(C)C` [lycopene], the mitochondrial mass result in the test on human lymphoblastoid L40 is listed as “increased”.

For the compound `CN(C)C(=N)N=C(N)N` [metformin], the myocardial infarction result in the test on marine models is reported as “can reduce myocardial infarction”.

In the case of `S=C=Nc1ccccc1` [phenyl isothiocyanate], the mitochondrial mass entry in the test with human lymphoblastoid L40 is “increased”.

Take `CO[C@H]1C[C@@H]2CC[C@@H](C)[C@@](O)(O2)C(=O)C(=O)N2CCCC[C@H]2C(=O)O[C@H]([C@H](C)C[C@@H]2CC[C@@H](O)[C@H](OC)C2)CC(=O)[C@H](C)/C=C(\C)[C@@H](O)[C@@H](OC)C(=O)[C@H](C)C[C@H](C)/C=C/C=C/C=C/1C` [rapamycin]: the “cells entered the G2/M phase of cell cycle” value in the test with cdc13-1 cells [3] is on record as “more than 95%”. Further, the “population doubling (PD), replication potential” value in the test on WI-38 cells is 6.8 and 6.82. For the same compound, the “cell survival compared with those without treatment” value with cdc13-1 cells [2] (low dose of rapamycin (1 nM), after 60 hrs of incubation at 37° C.) was “at least 100 fold”.

On to `Oc1ccc(C=Cc2cc(O)cc(O)c2)cc1` [resveratrol], for which the mitochondrial mass entry in the test with human lymphoblastoid L40 is given as “increased”.

For `O=[Se]([O-])[O-].[Na+].[Na+]` [selenite, selenite (Na2SeO3)], the mitochondrial mass entry in the test with human lymphoblastoid L40 is “increased”. Also, the “cell death triggered by inactivation” value in the test on cdc13-1 cells [2] is listed as “inhibited cell death”.
